Biological target: T1, RORγ-LBD (Homo sapiens, UniProt P51449)
T1 construct: HIS-tagged RORγ-LBD was recombinantly expressed in SF9 cells; made in house; host or cells: SF9 cells (baculovirus); unpurified lysate
T1 sequence (P51449 269-508 limits assumed): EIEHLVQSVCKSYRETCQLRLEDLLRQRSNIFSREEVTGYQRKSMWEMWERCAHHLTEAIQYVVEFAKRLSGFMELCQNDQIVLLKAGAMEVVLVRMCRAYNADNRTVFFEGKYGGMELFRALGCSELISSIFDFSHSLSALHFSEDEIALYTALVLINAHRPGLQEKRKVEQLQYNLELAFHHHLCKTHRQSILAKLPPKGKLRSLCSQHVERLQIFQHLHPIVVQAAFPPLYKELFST
Assay: RORγ-Ligand Binding Domain TR-FRET Assay
Type: biochemical
How it was run: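 Unpurified His-tagged LBD in Sf9 lysate (~10 nM final) in 25 mM HEPES pH 7.0, 100 mM NaCl, 0.01% Tween, 0.1% BSA, with biotinylated SRC1-2 LXXLL peptide (450 nM), Eu anti-His (2 nM) and streptavidin-APC (60 nM). Incubated 4 h to overnight; IC50 from 665/615 nm TR-FRET ratio.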

SMILES | IC50 (Table 8, indazoles) | IC50 (benzoxazines, Table 9)
O=C(Nc1ccc2cnn(S(=O)(=O)c3ccc(F)cc3)c2c1)c1c(F)cccc1Cl [Compound V-171] | < 15 µM | –
Cc1ccccc1CS(=O)(=O)n1ncc2ccc(NC(=O)c3c(F)cccc3Cl)cc21 [Compound V-119] | < 15 µM | –
N#Cc1cccc(S(=O)(=O)n2ncc3ccc(NC(=O)c4c(F)cccc4Cl)cc32)c1 [Compound V-121] | < 15 µM | –
O=C(Nc1ccc2c(c1)N(S(=O)(=O)c1ccc(F)cc1)C[C@H](CO)O2)c1c(F)cccc1Cl [Compound 18, (R)-2-Chloro-6-fluoro-N-(4-((4-fluorophenyl)sulfonyl)-2-(hydroxymethyl)-3,4-dihydro-2H-benzo[b][1,4]oxazin-6-yl)benzamide] | – | > 15 µM
C[C@H]1CN(S(=O)(=O)c2ccc(F)cc2)c2cc(NC(=O)[C@H](C)c3ccccc3)ccc2O1 [VI-134] | – | < 15 µM
C[C@H]1CN(S(=O)(=O)c2ccc(F)cc2)c2cc(NC(=O)c3c(Cl)cccc3Cl)ccc2O1 [VI-18] | – | < 15 µM
C[C@H]1CN(S(=O)(=O)c2cccc(C#N)c2)c2cc(NC(=O)c3c(Cl)cccc3Cl)ccc2O1 [VI-3] | – | < 15 µM
O=C(Nc1ccc2c(c1)N(S(=O)(=O)c1ccc(Cl)cc1)C[C@@H](CO)O2)c1c(F)cccc1F [VI-55] | – | < 15 µM
O=C(Nc1ccc2cnn(S(=O)(=O)c3ccc(C(F)(F)F)cc3)c2c1)c1c(F)cccc1Cl [Compound V-88] | < 15 µM | –
O=C(Nc1ccc2cnn(S(=O)(=O)c3ccc(F)cc3Cl)c2c1)c1c(F)cccc1Cl [Compound V-166] | < 15 µM | –
O=C(Nc1ccc2cnn(S(=O)(=O)c3cccc(Cl)c3)c2c1)c1c(F)cccc1C(F)(F)F [Compound V-48] | < 15 µM | –
O=C(Nc1ccc2c(c1)N(S(=O)(=O)c1ccc(F)cc1)CC(C(F)(F)F)O2)c1c(F)cccc1Cl (stereo not drawn) [VI-117] | – | < 15 µM
Cc1ccc(F)cc1S(=O)(=O)n1ncc2ccc(NC(=O)c3c(F)cccc3Cl)cc21 [Compound V-165] | < 15 µM | –
COc1ccc(S(=O)(=O)n2ncc3ccc(NC(=O)c4c(F)cccc4Cl)cc32)c(OC)c1 [Compound V-91] | < 15 µM | –
CC(=O)c1cccc(S(=O)(=O)n2ncc3ccc(NC(=O)c4c(F)cccc4C(F)(F)F)cc32)c1 [Compound V-12] | < 15 µM | –
O=C(Cc1ccc(F)c(F)c1)Nc1ccc2cnn(S(=O)(=O)c3cccc(OC(F)F)c3)c2c1 [Compound V-18] | < 15 µM | –
O=C(Nc1ccc2cnn(S(=O)(=O)c3cc(F)cc(C(F)(F)F)c3)c2c1)c1c(F)cccc1Cl [Compound V-161] | < 15 µM | –
Cc1ccc(S(=O)(=O)n2ncc3ccc(NC(=O)c4c(F)cccc4Cl)cc32)cc1F [Compound V-125] | < 15 µM | –
C[C@H]1CN(S(=O)(=O)c2ccc(F)cc2)c2cc(NC(=O)C3(c4ccc(Cl)cc4)CC3)ccc2O1 [VI-131] | – | < 15 µM
CNC(=O)Nc1ccc(S(=O)(=O)n2ncc3ccc(NC(=O)c4c(F)cccc4Cl)cc32)cc1 [Compound V-135] | < 15 µM | –
COc1ccc(F)cc1S(=O)(=O)n1ncc2ccc(NC(=O)c3c(F)cccc3Cl)cc21 [Compound V-100] | < 15 µM | –
Cc1cccc(S(=O)(=O)n2ncc3ccc(NC(=O)Cc4ccc(F)cc4)cc32)c1 [Compound V-25] | < 15 µM | –

SMILES | IC50 (Table 8, indazoles) | IC50 (benzoxazines, Table 9)
Cc1nn(C(F)F)cc1S(=O)(=O)n1ncc2ccc(NC(=O)c3c(F)cccc3C(F)(F)F)cc21 [Compound V-43] | < 15 µM | –
N#Cc1ccccc1S(=O)(=O)n1ncc2ccc(NC(=O)c3c(F)cccc3Cl)cc21 [Compound V-87] | < 15 µM | –
COc1cccc(S(=O)(=O)n2ncc3ccc(NC(=O)Cc4ccc(F)cc4)cc32)c1 [Compound V-26] | < 15 µM | –
Cc1cc(F)ccc1S(=O)(=O)n1ncc2ccc(NC(=O)c3c(F)cccc3Cl)cc21 [Compound V-163] | < 15 µM | –
N#Cc1cccc(S(=O)(=O)N2C[C@H](CO)Oc3ccc(NC(=O)c4c(F)cccc4F)cc32)c1 [VI-65] | – | < 15 µM
O=C(Nc1ccc2c(c1)N(S(=O)(=O)c1ccc(F)cc1)CCO2)c1c(F)cccc1Cl [Compound 17, 2-Chloro-6-fluoro-N-(4-((4-fluorophenyl)sulfonyl)-3,4-dihydro-2H-benzo[b][1,4]oxazin-6-yl)benzamide] | – | > 15 µM
COC(=O)c1ccccc1S(=O)(=O)n1ncc2ccc(NC(=O)c3c(F)cccc3Cl)cc21 [Compound V-142] | < 15 µM | –
COC(=O)c1ccc(S(=O)(=O)n2ncc3ccc(NC(=O)c4c(F)cccc4Cl)cc32)cc1 [Compound V-109] | < 15 µM | –
N#Cc1cccc(S(=O)(=O)N2C[C@@H](CO)Oc3ccc(NC(=O)Cc4ccc(Cl)cc4)cc32)c1 [VI-56] | – | < 15 µM
COC(=O)c1cc(S(=O)(=O)n2ncc3ccc(NC(=O)c4c(F)cccc4Cl)cc32)oc1C [Compound V-150] | < 15 µM | –
Cc1cc(F)ccc1S(=O)(=O)n1ncc2ccc(NC(=O)c3ccc(F)cc3Cl)cc21 [Compound V-77] | < 15 µM | –
O=C(Nc1ccc2cnn(S(=O)(=O)c3cc(Cl)c(Cl)s3)c2c1)c1c(F)cccc1Cl [Compound V-97] | < 15 µM | –
O=C(Nc1ccc2cnn(S(=O)(=O)Cc3ccc(Cl)c(Cl)c3)c2c1)c1c(F)cccc1Cl [Compound V-139] | < 15 µM | –
O=C(Nc1ccc2cnn(S(=O)(=O)Cc3ccc(Cl)cc3)c2c1)c1c(F)cccc1Cl [Compound V-92] | < 15 µM | –
O=C(Nc1ccc2cnn(S(=O)(=O)Cc3ccc(C(F)(F)F)cc3)c2c1)c1c(F)cccc1Cl [Compound V-140] | < 15 µM | –
Cc1nn(C(F)F)cc1S(=O)(=O)n1ncc2ccc(NC(=O)Cc3ccc(Cl)cc3)cc21 [Compound V-27] | < 15 µM | –
O=C(Nc1ccc2cnn(S(=O)(=O)c3ccc(OC(F)(F)F)cc3)c2c1)c1c(F)cccc1Cl [Compound V-153] | < 15 µM | –
O=C(Nc1ccc2cnn(S(=O)(=O)c3cccc(C(F)(F)F)c3)c2c1)c1c(F)cccc1F [Compound V-64] | < 15 µM | –
O=C(Nc1ccc2cnn(S(=O)(=O)Cc3cccc(C(F)(F)F)c3)c2c1)c1c(F)cccc1Cl [Compound V-137] | < 15 µM | –
CC(=O)c1cccc(S(=O)(=O)n2ncc3ccc(NC(=O)c4c(F)cccc4F)cc32)c1 [Compound V-59] | < 15 µM | –
O=C(Nc1ccc2cnn(S(=O)(=O)Cc3ccc(C(F)(F)F)cc3)c2c1)c1c(Cl)cccc1Cl [Compound V-71] | < 15 µM | –
COc1ccccc1S(=O)(=O)n1ncc2ccc(NC(=O)c3c(F)cccc3Cl)cc21 [Compound V-111] | < 15 µM | –

SMILES | IC50 (Table 8, indazoles) | IC50 (benzoxazines, Table 9)
O=C(Nc1ccc2cnn(S(=O)(=O)c3ccccc3Cl)c2c1)c1c(F)cccc1Cl [Compound V-136] | < 15 µM | –
Cc1c(Cl)cccc1S(=O)(=O)n1ncc2ccc(NC(=O)c3c(F)cccc3Cl)cc21 [Compound V-145] | < 15 µM | –
C[C@H]1CN(S(=O)(=O)c2cccc(C#N)c2)c2cc(NC(=O)c3c(F)cccc3F)ccc2O1 [VI-2] | – | < 15 µM
Cc1cccc(S(=O)(=O)n2ncc3ccc(NC(=O)c4c(F)cccc4Cl)cc32)c1 [Compound V-124] | < 15 µM | –
O=C(Cc1ccc(Cl)cc1)Nc1ccc2cnn(S(=O)(=O)c3cccc(OC(F)F)c3)c2c1 [Compound V-29] | < 15 µM | –
O=C(Nc1ccc2cnn(S(=O)(=O)c3ccccc3Br)c2c1)c1c(F)cccc1Cl [Compound V-84] | < 15 µM | –
CC(C(=O)Nc1ccc2c(c1)N(S(=O)(=O)c1ccc(F)cc1)C[C@H](C)O2)c1ccc(Cl)cc1 (stereo partly drawn) [VI-136] | – | < 15 µM
O=C(Nc1ccc2c(c1)N(S(=O)(=O)c1ccc(F)cc1)CC(CC(F)(F)F)O2)c1c(F)cccc1Cl (stereo not drawn) [VI-7] | – | < 15 µM
O=C(Nc1ccc2cnn(S(=O)(=O)Cc3ccc(C(F)(F)F)cc3)c2c1)c1c(F)cccc1C(F)(F)F [Compound V-47] | < 15 µM | –
Cc1nn(C(F)F)cc1S(=O)(=O)n1ncc2ccc(NC(=O)c3c(F)cccc3Cl)cc21 [Compound V-104] | < 15 µM | –
C[C@H]1CN(S(=O)(=O)c2ccc(F)cc2)c2cc(NC(=O)c3c(Cl)cccc3C(F)(F)F)ccc2O1 [VI-20] | – | < 15 µM
C[C@H]1CN(S(=O)(=O)c2cccc(C#N)c2)c2cc(NC(=O)c3c(Cl)cccc3C(F)(F)F)ccc2O1 [VI-5] | – | < 15 µM
N#CC[C@H]1CN(S(=O)(=O)c2ccc(F)cc2)c2cc(NC(=O)c3c(F)cccc3Cl)ccc2O1 [Compound 19, (S)-2-Chloro-N-(2-(cyanomethyl)-4-((4-fluorophenyl)sulfonyl)-3,4-dihydro-2H-benzo[b][1,4]oxazin-6-yl)-6-fluorobenzamide] | – | < 15 µM
O=C(Nc1ccc2cnn(S(=O)(=O)c3cccc(C(F)(F)F)c3)c2c1)c1c(Cl)cccc1Cl [Compound V-75] | < 15 µM | –
CCn1cc(S(=O)(=O)n2ncc3ccc(NC(=O)c4c(F)cccc4Cl)cc32)cn1 [Compound V-113] | < 15 µM | –
CC(=O)c1cccc(S(=O)(=O)n2ncc3ccc(NC(=O)Cc4ccc(Cl)cc4)cc32)c1 [Compound V-30] | < 15 µM | –
CCNCC1CN(S(=O)(=O)c2ccc(F)cc2)c2cc(NC(=O)c3c(F)cccc3Cl)ccc2O1 (stereo not drawn) [VI-34] | – | < 15 µM
O=C(Nc1ccc2cnn(S(=O)(=O)c3cc(Cl)sc3Cl)c2c1)c1c(F)cccc1Cl [Compound V-82] | < 15 µM | –
CNC(=O)Nc1ccc(S(=O)(=O)n2ncc3ccc(NC(=O)c4c(F)cccc4Cl)cc32)cc1Cl [Compound V-133] | < 15 µM | –
O=C(Nc1ccc2cnn(S(=O)(=O)c3ccccc3C(F)(F)F)c2c1)c1c(F)cccc1Cl [Compound V-132] | < 15 µM | –
Cc1nc(C)c(S(=O)(=O)n2ncc3ccc(NC(=O)c4c(F)cccc4Cl)cc32)s1 [Compound V-89] | < 15 µM | –
Cc1ccc(S(=O)(=O)n2ncc3ccc(NC(=O)c4c(F)cccc4Cl)cc32)c(C)c1 [Compound V-103] | < 15 µM | –

Source: US9512111B2, “N-sulfonylated tetrahydroquinolines and related bicyclic compounds for inhibition of RORγ activity and the treatment of disease” (Lycera Corporation, priority 2010, dated 2016)
